Reference: EP4759805A1, “NLRP3 INFLAMMASOME INHIBITOR AND USE THEREOF” (NEUROCRINE BIOSCIENCES, INC., priority 2023, dated 2025)

What follows are compounds tested against T1, NLRP3 inflammasome (Homo sapiens, UniProt Q96P20) (assay: Cell assay of inhibitory activity against NLRP3 inflammasome in THP-1 cells (LPS/nigericin stimulation, caspase-1 glo readout)). Settings: PMA-differentiated THP-1 cells; LPS 500 ng/ml 3 h, compound 1 h, nigericin 10 µg/ml 30 min; active caspase-1 in supernatant.
T1 construct: endogenous in cells; host or cells: THP-1 cells (PMA-differentiated, LPS-primed, nigericin-stimulated)
T1 sequence (Q96P20 whole entry): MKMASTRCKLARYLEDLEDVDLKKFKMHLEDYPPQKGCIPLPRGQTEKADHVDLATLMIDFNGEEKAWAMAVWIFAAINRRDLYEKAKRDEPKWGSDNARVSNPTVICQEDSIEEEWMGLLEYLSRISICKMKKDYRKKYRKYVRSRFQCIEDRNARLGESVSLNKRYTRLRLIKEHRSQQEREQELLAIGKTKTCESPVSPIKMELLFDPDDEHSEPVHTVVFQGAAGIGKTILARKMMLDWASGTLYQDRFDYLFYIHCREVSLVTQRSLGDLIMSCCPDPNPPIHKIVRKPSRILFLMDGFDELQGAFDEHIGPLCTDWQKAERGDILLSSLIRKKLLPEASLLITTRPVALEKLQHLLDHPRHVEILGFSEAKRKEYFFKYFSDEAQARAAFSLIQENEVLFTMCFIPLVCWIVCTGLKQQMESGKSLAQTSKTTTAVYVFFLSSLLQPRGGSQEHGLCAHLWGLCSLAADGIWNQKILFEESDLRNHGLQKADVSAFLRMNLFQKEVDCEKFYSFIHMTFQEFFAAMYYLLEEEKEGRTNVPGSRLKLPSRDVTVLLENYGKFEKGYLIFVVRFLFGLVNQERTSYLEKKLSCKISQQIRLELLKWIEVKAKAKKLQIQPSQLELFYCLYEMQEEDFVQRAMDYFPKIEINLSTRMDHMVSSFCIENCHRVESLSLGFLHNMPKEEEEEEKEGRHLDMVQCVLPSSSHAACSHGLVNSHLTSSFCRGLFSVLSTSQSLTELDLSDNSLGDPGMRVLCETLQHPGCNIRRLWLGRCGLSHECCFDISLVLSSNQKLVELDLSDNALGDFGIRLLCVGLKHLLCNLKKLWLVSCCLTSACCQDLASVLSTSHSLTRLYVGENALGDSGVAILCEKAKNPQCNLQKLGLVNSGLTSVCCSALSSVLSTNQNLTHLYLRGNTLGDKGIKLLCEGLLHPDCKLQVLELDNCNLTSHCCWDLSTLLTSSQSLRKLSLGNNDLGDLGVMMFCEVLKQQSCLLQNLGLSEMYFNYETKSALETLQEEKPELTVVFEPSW
Assay type: cell-based
Description: Experimental Example 1: Cell assay of inhibitory activity of the compounds of the present disclosure against NLRP3 inflammasome
Test compounds: the compounds of the present disclosure prepared in accordance with the methods described in the Examples
THP-1 was an immortalized human macrophage cell line.
Test instrument: Microplate reader (manufactured by PE)
• 1. THP-1 cells were cultured in 1640 complete medium (500 ml 1640+56 ml FBS+560 µl 1000× P/S+2 µl mercaptoethanol), and used within 3 to 20 passages. • 2. Coating of culture plates: 100 µl of polylysine solution was added into a 96-well cell culture plate and incubated at 37°C for 30min. The solution was discarded, and the plate was washed twice with PBS for later use. • 3. Induction of differentiation of THP-1: THP-1 cells were resuspended in an appropriate amount of complete medium containing 10 ng/ml PMA to achieve a cell density of 5×10^5 cells /ml in the suspension. The cell suspension was added into a 96-well plate with 100 µl of cell suspension per well, and the 96-well plate was cultured overnight for 16 hours in a 37°C CO2 cell incubator. • 4. Stimulation of THP-1: • a. Serum-free THP-1 culture medium containing LPS was added to achieve a final concentration of 500 ng/ml, and the resultant was cultured in a 37°C CO2 cell incubator for 3h; • b. The compounds to be tested were prepared into stock solutions at gradient concentrations with DMSO. The resulting solutions were added to the cells, evenly mixed, and finally diluted at 1:1000. The 96-well plate was cultured in a 37°C CO2 cell incubator for 1h. • c. Nigericin was added to each well to achieve a final concentration of 10 µg/ml, and the resultant was cultured in a 37°C CO2 cell incubator for 30 min. • d. The resulting culture medium in each well was transferred to a new culture plate, which was then centrifuged at 3000 rpm for 5min. Afterwards, the supernatant was transferred to a new 96-well plate. • e. The collected supernatant samples of the cell culture medium were determined by using a commercial caspase-1 glo kit, and the content of human active caspase-1 was determined according to the manufacturer's instructions.
`C#Cc1ccc(-c2nnc(NC(=O)CNC)cc2C2CC2)c(O)c1` [Compound 7, N-(5-cyclopropyl-6-(4-ethynyl-2-hydroxyphenyl)pyridazin-3-yl)-2-(methylamino)acetamide] was tested, and the IC50 was 1.3 nM. Compound `C#Cc1ccc(-c2nnc(NC(=O)CNCC)cc2C)c(O)c1` [Compound 2, N-(6-(4-ethynyl-2-hydroxyphenyl)-5-methylpyridazin-3-yl)-2-(ethylamino)acetamide] has an IC50 of 18.1 nM. Work on `C#Cc1ccc(-c2nnc(NC(=O)[C@@H](C)N)cc2C(C)C)c(O)c1` [Compound 66, (R)-2-amino-N-(6-(4-ethynyl-2-hydroxyphenyl)-5-isopropylpyridazin-3-yl)propanamide] yielded an IC50 of 13.9 nM. Work on `C#Cc1ccc(-c2nnc(NC(=O)[C@@H](C)N)cc2C2CC2)c(O)c1` [Compound 44, (R)-2-amino-N-(5-cyclopropyl-6-(4-ethynyl-2-hydroxyphenyl)pyridazin-3-yl)propanamide] yielded an IC50 of 6.4 nM. For `CNCC(=O)Nc1cc(C2CC2)c(-c2ccc(C(F)(F)F)cc2O)nn1` [Compound 20, N-(5-cyclopropyl-6-(2-hydroxy-4-(trifluoromethyl)phenyl)pyridazin-3-yl)-2-(methylamino)acetamide], the IC50 was 0.3 nM. With `C#Cc1ccc(-c2nnc(NC(=O)CNC(C)C)cc2C2CC2)c(O)c1` [Compound 9, N-(5-cyclopropyl-6-(4-ethynyl-2-hydroxyphenyl)pyridazin-3-yl)-2-(isopropylamino)acetamide] the IC50 was 9.7 nM.
